Format in all cases: cell-based
In assay [1] the test system is MMP-13. Briefly: MMP-13 ELISA on supernatants of chondrocytes stimulated with IL-1β. The settings on record: Homo sapiens, Chondrocyte; chondrocytes pretreated 2 hours, IL-1β 24 hours; protein (ELISA); N/A = did not affect MMP levels; read-out: IC50 constants for inhibition of MMP activity, MMP-13. The method, then: (§1) The effects of dendrimer compounds comprising n-acyl urea terminal moieties (i.e., dd-NAU) were evaluated for MMP activity in chondrocytes. […] In some instances, these effects were compared to dendrimer compounds comprising glucosamine terminal moieties (i.e., dd-Gln) and/or ethyl dimethylaminopropylurea (EDU). Chondrocytes were grown to confluency in 6-well plates (4 donors). The chondrocytes were pretreated with dendrimers (e.g., dd-NAU or dd-Gln) or EDU for 2 hours and then stimulated with IL-1β for 24 hours. Supernatants were collected and MMP-1, -3, and 13 ELISA assays were performed. The cells were collected for RNA analysis (3 donors).
(§2) Chondrocytes were grown to confluency in 6-well plates (2 donors). […] Supernatants were collected and MMP-1, -3, and 13 ELISA assays were performed. Neutral Red assays and Calcien AM assays were also performed on the chondrocytes to determine cell viability.
Background: An ELISA detects its analyte on a solid surface through an enzyme-linked reagent.

The subject of assay [2] is MMP-1. The assay is described as follows: MMP-1 ELISA on supernatants of chondrocytes stimulated with IL-1β. Conditions: Homo sapiens, Chondrocyte; chondrocytes pretreated 2 hours, IL-1β 24 hours; protein (ELISA); N/A = did not affect MMP levels; read-out: IC50 constants for inhibition of MMP activity, MMP-1. The method, then: as §1, §2
Assay [3] has as its system MMP-3. The assay is described as follows: MMP-3 ELISA on supernatants of chondrocytes stimulated with IL-1β. Conditions: Homo sapiens, Chondrocyte; chondrocytes pretreated 2 hours, IL-1β 24 hours; protein (ELISA); N/A = did not affect MMP levels; read-out: IC50 constants for inhibition of MMP activity, MMP-3. The method, then: as §1, §2

Molecules are shown by their SMILES.

In general, IC50 refers to the concentration needed to halve the response being measured. In the case of `N[C@H]1C(O)O[C@H](CO)[C@@H](O)[C@@H]1O` (stereo partly drawn) [Glucosamine], the IC50 in assay [1] was 1400 µM; in assay [2], 1420 µM; in assay [3], 600 µM.

For the origin of these results see patent US9283247B2, “Chemically modified dendrimers” (Genzyme Corporation, priority 2007, dated 2016).
